Results on 17 compounds are retold here after article PMC11593696, “Discovery of Potent Benzothiazole Inhibitors of Oxidoreductase NQO2, a Target for Inflammation and Cancer” (International Journal of Molecular Sciences, 2024).

Data set [1] concerns the target T1, recombinant human NQO2 (Homo sapiens, UniProt P16083).
T1 sequence (P16083 1-231): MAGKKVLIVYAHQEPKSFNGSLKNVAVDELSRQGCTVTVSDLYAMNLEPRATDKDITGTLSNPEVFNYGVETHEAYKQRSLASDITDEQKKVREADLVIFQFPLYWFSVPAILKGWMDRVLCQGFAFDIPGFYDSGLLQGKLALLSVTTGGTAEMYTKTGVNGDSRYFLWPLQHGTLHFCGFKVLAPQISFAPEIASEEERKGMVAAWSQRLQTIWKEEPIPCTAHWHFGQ
Put plainly: NQO2 enzyme inhibition assay (DCPIP substrate, NRH or EPR co-substrate). Format: biochemical. How it is done: In this assay, dichlorophenolindophenol (DCPIP) was used as a substrate for NQO2. NRH (SI or EP0152R) was used as the co-substrate for the enzyme.
The NQO2 enzyme assay was carried out using a […] GO spectrophotometer by measuring the absorbance of DCPIP at 600 nm. NRH [31] or EPR were used as co-substrates. The experiment was performed using a 96-well plate with a […] final volume using phosphate buffer (50 mM, pH 7.4). The final concentrations were DCPIP 40 µM and NRH or EPR 200 µM. The final enzyme concentration was 100 ng. The assay was performed at 37 °C and initiated through the addition of NQO2. The initial rates of the enzyme reactions were calculated from the curve by taking the initial slopes of the reactions using the formula (ΔAb/ΔTime). The assay of inhibitors was carried out using the same assay conditions. […] Each experiment was performed in triplicate. Rates were converted to the percentage of enzyme activity, and IC50 values were calculated using GraphPad Prism 7.03 software using the non-linear regression function. IC50 values were determined as a 50% decrease in NQO2 activity.

The target in data set [2] is NQO2. The settings on record: read-out: dissociation constant; cited from earlier work.
The mark [3] stands for this setting: inhibition of NQO2, DCPIP 40 µM, NRH or EPR 200 µM, phosphate buffer pH 7.4, 37 °C, triplicate, read-out: IC50 (µM) ± SD.
Where [4] appears, read: DCPIP substrate, NRH co-substrate, read-out: IC50 for inhibition of NQO2.

Read-outs that look alike come from different tables or passages of the source.

The compound `COc1ccc(-c2nc3ccc(OC)cc3s2)c(OC)c1` [Compound 16, 2-(2,4-Dimethoxyphenyl)-6-methoxybenzo[d]thiazole] returned a melting point of 150 to 151 °C. Besides, the IC50 in data set [1] (setting [3]) was found to be 5.86 ± 0.07 µM.

The compound `COc1ccc(OC)c(-c2nc3ccc(F)cc3s2)c1` [Compound 29, 2-(2,5-Dimethoxyphenyl)-6-fluorobenzo[d]thiazole] returned a melting point of 105 to 107 °C. In data set [1] (setting [4]), the IC50 worked out at 2.06 µM. For the same compound, the IC50 in data set [1] (setting [3]) was determined as 2.06 ± 0.01 µM.

Take `COc1ccc(-c2nc3ccc([N+](=O)[O-])cc3s2)cc1OC` [Compound 39, 2-(3,4-Dimethoxyphenyl)-6-nitrobenzo[d]thiazole]: the melting point was 221 to 222 °C. Moreover, in data set [1] (setting [3]), the IC50 came out at 63.28 ± 0.02 µM.

The compound `COc1ccc(-c2nc3ccc(Cl)cc3s2)c(OC)c1` [Compound 19, 6-Chloro-2-(2,4-dimethoxyphenyl)benzo[d]thiazole] displayed a melting point of 170 to 171 °C. Further, the IC50 in data set [1] (setting [4]) came out at 33.5 µM. Further, in data set [1] (setting [3]), the 50% inhibitory concentration (IC50) turned out to be 33.55 ± 0.02 µM.

The compound `COc1cc(-c2nc3ccc(NC(=O)c4ccccc4)cc3s2)cc(OC)c1OC` [Compound 50, N-(2-(3,4,5-Trimethoxyphenyl)benzo[d]thiazol-6-yl)benzamide] had a melting point of 205 to 207 °C. In data set [1] (setting [4]), the IC50 amounted to 3.17 µM. Further, the IC50 in data set [1] (setting [3]) was 3.17 ± 0.031 µM.

In the case of `COc1cc(OC)cc(C(=O)Nc2ccc3nc(-c4cc(OC)c(OC)c(OC)c4)sc3c2)c1` [Compound 51, 3,5-Dimethoxy-N-(2-(3,4,5-trimethoxyphenyl)benzo[d]thiazol-6-yl)benzamide], the melting point lay in the range of 185 to 187 °C. Besides, in data set [1] (setting [3]), the IC50 is 3.11 ± 0.03 µM.

Regarding `COc1cc(OC)cc(-c2nc3ccc(F)cc3s2)c1` [Compound 8, 2-(3,5-Dimethoxyphenyl)-6-fluorobenzo[d]thiazole], the melting point is 138 to 140 °C. Moreover, the IC50 in data set [1] (setting [3]) is greater than 100 µM.

Consider `COc1ccc(-c2nc3ccc(F)cc3s2)cc1` [Compound 54, 6-Fluoro-2-(4-methoxyphenyl)benzo[d]thiazole], for which the melting point lay in the range of 127 to 130 °C. For the same compound, the IC50 in data set [1] (setting [4]) is greater than 100 µM. In addition, in data set [1] (setting [3]), the IC50 is greater than 100 µM.

`COc1cc(OC)cc(-c2nc3ccc(NC(C)=O)cc3s2)c1` [Compound 12, N-(2-(3,5-Dimethoxyphenyl)benzo[d]thiazol-6-yl)acetamide] came in with a melting point of 179 to 181 °C. In data set [1] (setting [4]), the half-maximal inhibitory concentration (IC50) was determined as 0.605 µM. In addition, the IC50 in data set [1] (setting [3]) was found to be 0.605 ± 0.06 µM.

For `COc1ccc(-c2nc3ccc(F)cc3s2)c(OC)c1` [Compound 21, 2-(2,4-Dimethoxyphenyl)-6-fluorobenzo[d]thiazole], the melting point lay in the range of 157 to 158 °C. Further, the IC50 in data set [1] (setting [3]) is 3.51 ± 0.08 µM.

Regarding `COc1cc(OC)cc(C(=O)Nc2ccc3nc(-c4cc(OC)cc(OC)c4)sc3c2)c1` [Compound 14, N-(2-(3,5-Dimethoxyphenyl)benzo[d]thiazol-6-yl)-3,5-dimethoxybenzamide], the melting point is 159 to 162 °C. Moreover, the “inhibition of NQO2 enzymatic activity, in words” value in data set [1] is reported as “further loss of activity”. Also, the IC50 in data set [1] (setting [3]) is 1.36 ± 0.06 µM.

In turn, `COc1cc(OC)cc(-c2nc3ccc(C#N)cc3s2)c1` [Compound 7, 2-(3,5-Dimethoxyphenyl)benzo[d]thiazole-6-carbonitrile] gave a melting point of 222 to 224 °C. The IC50 in data set [1] (setting [3]) was greater than 100 µM.

Consider `Oc1ccc(/C=C/c2cc(O)cc(O)c2)cc1` [Resveratrol, trans-3,4’,5-trihydroxystilbene], for which the Kd in data set [2] was 0.035 µM.

As for `COc1ccc(-c2nc3ccc(Br)cc3s2)cc1OC` [Compound 33, 6-Bromo-2-(3,4-dimethoxyphenyl)benzo[d]thiazole], the melting point fell in the range of 165 to 168 °C. The 50% inhibitory concentration (IC50) in data set [1] (setting [4]) amounted to 9.09 µM. Also, in data set [1] (setting [3]), the 50% inhibitory concentration (IC50) came to 9.09 ± 0.04 µM.

In the case of `COc1cc(-c2nc3ccc(N)cc3s2)cc(OC)c1OC` [Compound 48, 2-(3,4,5-Trimethoxyphenyl)benzo[d]thiazol-6-amine], the melting point lay within 212 to 215 °C. Besides, the IC50 in data set [1] (setting [4]) was 0.079 µM. Further, in data set [1] (setting [3]), the 50% inhibitory concentration (IC50) is 0.079 ± 0.017 µM.

Consider `COc1cc(-c2nc3ccc(F)cc3s2)cc(OC)c1OC` [Compound 45, 6-Fluoro-2-(3,4,5-trimethoxyphenyl)benzo[d]thiazole], for which the melting point is 156 to 158 °C. The IC50 in data set [1] (setting [3]) was 0.717 ± 0.015 µM.

`COc1cc(OC)cc(-c2nc3ccc(Cl)cc3s2)c1` [Compound 6, 6-Chloro-2-(3,5-dimethoxyphenyl)benzo[d]thiazole] registered a melting point of 150 to 151 °C. Moreover, the IC50 in data set [1] (setting [3]) came out at 82.93 ± 0.04 µM.

For orientation: IC50 means the midpoint of a concentration-inhibition curve. As a reminder, the melting point is the temperature, or range, at which the solid turns liquid.
